The values below come from EP4796125A1, “TREATMENT OF PATIENT WITH NEGATIVE P53 GENE MUTATION, POSITIVE KRAS GENE MUTATION AND POSITIVE BRCA MUTATION” (Ascentawits Pharmaceuticals, Ltd., priority 2023, dated 2025).

For series [1], the system named is H460 WT (H460 wild-type cells). As to the kind of experiment: In vitro proliferation under normoxia (CTG, 72 hours), Example 26. The series is classed as cell-based. The note with it: Homo sapiens, NCI-H460, Table 21, AST-3424 alone or + 3 µM AST-3021. The procedure: (§1) • 1) H460 cell suspension was added to a 96-well plate (100 µL per well), with a cell density of 2000 cells/well. • 2) The cells were cultured overnight in a 37°C, 5% CO2 incubator. • 3) Compound Treatment
(§2) Monotherapy: 24 hours after cell plating, each well was supplemented with 99.5 µL of growth medium. Then, 0.5 µL of test compounds at different concentrations was added. The plate was gently shaken to ensure even mixing, and then placed in a 37°C, 5% CO2 incubator.
Combination therapy: 24 hours after cell plating, each well was supplemented with 99 µL of growth medium. Then, 0.5 µL of the combination compound Nutlin-3 was added. The plate was gently shaken to ensure even mixing, and then placed in an incubator for 2 hours. Then, 0.5 µL of test compounds at different concentrations was added. […]

In series [2] the test system is γH2AX protein in H460 cells. As to the kind of experiment: WB detection of γH2AX protein (DNA double-strand damage). The series is classed as cell-based. As to conditions: AST-3424 alone or with 5 µM Nutlin-3, dose-dependent (Figures 24-26). From the text: In the first experiment, the second experiment and the third experiment about the effect of the combination of AST-3424 and Nutlin-3 on Ser15-p53, Ser20-p53, Total p53, MDM2, and p21 proteins in H460 cells in Example 21, the applicant also performed WB detection of γH2AX protein.

Another series deals with NCI-H460 cells. Put plainly: In vitro proliferation under normoxia conditions (CTG, 72 hours), Example 29. It counts as cell-based. The note with it: Homo sapiens, Table 25, normoxia, alone or + 3 µM AST-3021. Here is the method: • 1) NCI-H460 and NCI-H460 P53KO # 1 cell suspensions were added to 96-well plate (100 µL per well), with a cell density of 2000 cells/well. • 2) The cells were cultured overnight in a 37°C, 5% CO2 incubator. • 3) Compound Treatment
as §2
(§3) Combination therapy: 24 hours after cell plating, each well was supplemented with 99 µL of growth medium. Then, 0.5 µL of the combination compound was added. The plate was gently shaken to ensure even mixing, and then placed in an incubator for 2 hours. Then, 0.5µL of test compounds at different concentrations was added. The plate was gently shaken to ensure even mixing, and then placed in a 37°C, 5% CO2 incubator. • 4) The cell plate was placed in the incubator for 72 hours. • 5) The cell plate to be tested was placed at room temperature and equilibrated for 30 minutes, and 100 µL of medium was discarded from each well. • 6) 25 µL of CTG reagent was added to each well, placed at a fast shaker to shake for 2 minutes, and placed at room temperature for 30 minutes (protected from light). • 7) The chemiluminescence signal value was read using a multifunctional microplate reader with a reading time of 1000 ms. • 8) IC50 (half maximal inhibitory concentration) values were calculated using GraphPad Prism 5 software.

For series [3], the system named is PDX and CDX models with high expression of AKR1C3 enzyme. As to conditions: WO2023/046060, Examples 1-9; cited from earlier work.
The subject of the next series is H460 P53 KO #7. Put plainly: In vitro proliferation under normoxia (CTG, 72 hours), Example 26. The note with it: Table 21. The series is classed as cell-based, human. Here is the method: as §1, §2
as §3, with “combination compound Nutlin-3 was added.” for “combination compound was added.”, “hours. Then, 0.5 µL of test” for “hours. Then, 0.5µL of test”, “well, placed on a fast” for “well, placed at a fast”, “8) IC50 values were” for “8) IC50 (half maximal inhibitory concentration) values were”, “calculated using Graph Pad Prism 5” for “calculated using GraphPad Prism 5”
(§4) The p53 CRISPR/Cas9 KO plasmid (human) and p53 HDR plasmid (human) were purchased from Santa Cruz Company to construct H460 P53 KO cell lines, namely p53 knockout H460 cell lines. Three groups of H460 P53 KO cell lines were constructed and designated as H460 P53 KO # 1, H460 P53 KO # 7, and H460 P53 KO # 12.
(§5) The process for constructing p53 gene knockout cells is briefly described as follows: • H460 cells were plated in 6-well plates with 1 × 10^6 cells/well. • H460 cells were co-transfected with p53 CRISPR/Cas9 KO plasmid (h) (sc-416469) and p53 HDR plasmid (h) (sc-416469-HDR): 125 µL Opti-MEM + 1.25 µg each of the two plasmids + 5 µL P3000; 125 µL Opti-MEM + 15 µL liposome 3000 (increase volume, expected to increase transfection efficiency); they were co-incubated for 15 minutes, and then were added dropwise to the culture medium and mixed well.
(§6) After 48 h, 2 µg/mL puromycin was added for screening.
(§7) Two days later, the medium was replaced with fresh 1640 medium containing 1 µg/mL puromycin, and the medium was changed every two days.
(§8) When the cell colonies grew to a sufficient size, single colonies were picked and cultured.
(§9) When the cell number is sufficient, samples were collected for WB identification of the colonies. Colonies with no p53 expression were the p53 knockout H460 cell clones.
(§10) For the experimental procedures of this Example, please refer to the Experimental Procedure Overview in the section "Effects of compounds on in vitro H460 cell proliferation under normoxia" in Example 18.
(§11) Monotherapy: Compounds AST-3424/AST were separately administered in H460 and H460 P53 KO cell lines, respectively.
(§12) Combination therapy: Compounds AST-3424/AST were respectively used in combination with AST-3021, and respectively administeredin H460 and H460 P53 KO cell lines.
(§13) H460 P53 KO cell lines, i.e. H460 P53 KO # 1, H460 P53 KO # 7, H460 P53 KO # 12 cell lines, were used in experiments, respectively.

Another series deals with H460 P53 KO #1. Described as above. It counts as cell-based, human. The note with it: Table 21. The procedure:
as §1, §2
as §3, with “combination compound Nutlin-3 was added.” for “combination compound was added.”, “hours. Then, 0.5 µL of test” for “hours. Then, 0.5µL of test”, “well, placed on a fast” for “well, placed at a fast”, “8) IC50 values were” for “8) IC50 (half maximal inhibitory concentration) values were”, “calculated using Graph Pad Prism 5” for “calculated using GraphPad Prism 5”
as §4, §5, §6, §7, §8, §9, §10, §11, §12, §13

A further series has as its system H460 P53 KO #12. The series is described as above. The series is classed as cell-based, human. The note with it: Table 21. The procedure:
as §1, §2
as §3, with “combination compound Nutlin-3 was added.” for “combination compound was added.”, “hours. Then, 0.5 µL of test” for “hours. Then, 0.5µL of test”, “well, placed on a fast” for “well, placed at a fast”, “8) IC50 values were” for “8) IC50 (half maximal inhibitory concentration) values were”, “calculated using Graph Pad Prism 5” for “calculated using GraphPad Prism 5”
as §4, §5, §6, §7, §8, §9, §10, §11, §12, §13

For orientation: IC50 means the point on the concentration scale where inhibition reaches its midpoint. With `C[C@H](OP(=O)(N1CC1)N1CC1)c1ccc([N+](=O)[O-])c(Oc2cccc(C(=O)N(C)C)c2)c1` [AST-3424], the 50% inhibitory concentration (IC50) in series [1] came to 0.23 nM; with NCI-H460 cells, 0.43 nM; in the series on H460 P53 KO #7 (Homo sapiens, NCI-H460, H460 P53 KO # 7, AST-3424 alone or + 3 µM AST-3021), 23.1 nM; in the series with H460 P53 KO #1 (Homo sapiens, NCI-H460, H460 P53 KO # 1, AST-3424 alone or + 3 µM AST-3021), 11.3 nM; in the series on H460 P53 KO #12 (Homo sapiens, NCI-H460, H460 P53 KO # 12, AST-3424 alone or + 3 µM AST-3021), 1.99 nM. Moreover, in series [2], the “level of γH2AX protein” value is “upregulate”. In series [3], the anti-tumor effects entry is “significant anti-tumor effects”. For the same compound, in series [3], the tolerability entry was “well tolerated”. For the same compound, the “Ratio (monotherapy), knockout/wild” value in the series with H460 P53 KO #7 (IC50 in H460 P53 KO # 7 / H460 WT) was found to be 100.43; with H460 P53 KO #1 (IC50 in H460 P53 KO # 1 / H460 WT), 49.13; in the series on H460 P53 KO #12 (IC50 in H460 P53 KO # 12 / H460 WT), 8.65.
